# Test system: human iPS cell-derived cardiac myocytes
# Experiment: Extracellular potential of cultured cardiac myocytes measured with MEA probe using device 1700
# Type: cell-based
# Conditions: dofetilide 0.0003, 0.001, 0.003 μM vs DMSO alone; MEA probe (MED64 System); FIG. 23
# Source text: The method of using the device for retaining and transporting cells 1700 when measuring cell characteristics is described here by taking an example of measuring an extracellular potential generated by cell activity of cardiac myocytes that is formed in the device for retaining and transporting cells 1700. An MEA (Multi-Electrode Array) probe P is used for measuring the extracellular potential. The MEA probe P is a device for measuring the extracellular potential generated by cellular activity. […] The substrate PB has a thin plate shape, and the molten wall PW is formed on the substrate PB. The melted wall PW has a cylindrical shape with one end open, and stores a medium inside, forming a cell arrangement space PS for placing the cells to be tested. […] The extracellular potential of the cultured cardiac myocytes was measured using the device 1700 that is formed using polycarbonate and that has a base 1701 (diameter: 6 mm, thickness: 0.7 mm), a through hole 1703 (diameter: 1.5 mm), a cell culture holding part 105 made of an oriented fiber sheet with a pitch of 10 μm, a manipulating part 1707, and the air vent section 1711, and the MEA probe P (MED64 System, Alpha MED Scientific Inc.). […] The drug response of the cultured cardiac myocytes can be measured by means of the extracellular potential by changing the conditions of the drug to be administered to the cultured cardiac myocytes. […]
smiles,measurement,value
"CN(CCOc1ccc(NS(C)(=O)=O)cc1)CCc1ccc(NS(C)(=O)=O)cc1 [dofetilide, Dofetilide]",time required from the first peak potential to the second peak potential,prolonged depending on the concentration

# From patent US20200407674A1, “CELL HOLDING AND TRANSPORTING DEVICE” (Stem Cell & Device Laboratory, Inc., priority 2018, published 2020)
